Results published in patent publication US10874640B2 (GILEAD SCIENCES, INC., priority 2016, dated 2020).

Test system: not listed separately
Experiment: Hepatic Stability Assay
Format: in vitro ADME
Parameters: dose or concentration left out as unconfirmed
Conditions: pooled cryopreserved hepatocytes; read-out: t½
Experimental: The metabolic stability of certain compounds disclosed herein was assessed in vitro in pooled cryopreserved hepatocytes using the in vitro half-life method. Incubations were at 37° C. and final concentrations in the incubations were 1×10^6 cells/mL and […] test concentration of the compound. Aliquots were sequentially removed after 0, 1, 3 and 6 hours and analyzed by LC-MS/MS. In vitro half-life was determined by measuring the rate of disappearance of the compound and then scaled to predicted hepatic clearance using the well-stirred model. […] As such, compounds having a value of 39.5 may have a half live that exceeds 39.5 hours.

Row | SMILES | half-life
1 | Cc1c(C(=O)C(=O)NC2(c3c[nH]nn3)CC2)c2n(c1C(=O)Nc1ccc(F)cc1)CCC2 [Example 70, 7-(2-((1-(1H-1,2,3-triazol-4-yl)cyclopropyl)amino)-2-oxoacetyl)-N-(4-fluorophenyl)-6-methyl-2,3-dihydro-1H-pyrrolizine-5-carboxamide] | ≥ 39.5 h
2 | CNC(=O)C1(NC(=O)C(=O)c2c(C)c(C(=O)Nc3cccc(C(F)F)c3)n3c2CCC3)CC(F)(F)C1 [Example 115, 7-(2-((3,3-difluoro-1-(methylcarbamoyl)cyclobutyl)amino)-2-oxoacetyl)-N-(3-(difluoromethyl)phenyl)-6-methyl-2,3-dihydro-1H-pyrrolizine-5-carboxamide] | ≥ 39.5 h
3 | Cc1c(C(=O)C(=O)N[C@@](C)(C(N)=O)C(F)(F)F)c2n(c1C(=O)Nc1ccc(F)c(F)c1)CCC2 [Example 136] | ≥ 39.5 h
4 | Cc1c(C(=O)C(=O)N[C@](C)(C(N)=O)C(F)(F)F)c2n(c1C(=O)Nc1ccc(F)c(F)c1)CCC2 [Example 135] | ≥ 39.5 h
5 | CNC(=O)C1(NC(=O)C(=O)c2c(C)c(C(=O)Nc3ccc(F)cc3)n3c2CCC3)CC(F)(F)C1 [Example 47, 7-(2-((3,3-difluoro-1-(methylcarbamoyl)cyclobutyl)amino)-2-oxoacetyl)-N-(4-fluorophenyl)-6-methyl-2,3-dihydro-1H-pyrrolizine-5-carboxamide] | ≥ 39.5 h

Second part, the compound after the results:

Row | half-life | SMILES
6 | ≥ 39.5 h | CNC(=O)C1(NC(=O)C(=O)c2c(C)c(C(=O)Nc3ccc(F)c(C#N)c3)n3c2CCC3)CC(F)(F)C1 [Example 35, N-(3-cyano-4-fluorophenyl)-7-(2-((3,3-difluoro-1-(methylcarbamoyl)cyclobutyl)amino)-2-oxoacetyl)-6-methyl-2,3-dihydro-1H-pyrrolizine-5-carboxamide]
7 | ≥ 39.5 h | Cc1c(C(=O)C(=O)NC2(c3c[nH]nn3)CC2)c2n(c1C(=O)Nc1ccnc(C(F)F)c1)[C@@H]1C[C@@H]1C2 [Example 56, (1aR,6aR)-5-(2-((1-(1H-1,2,3-triazol-4-yl)cyclopropyl)amino)-2-oxoacetyl)-N-(2-(difluoromethyl)pyridin-4-yl)-4-methyl-1,1a,6,6a-tetrahydrocyclopropa[b]pyrrolizine-3-carboxamide]
8 | ≥ 39.5 h | Cc1c(C(=O)C(=O)NC2(C)CS(=O)(=O)C2)c2n(c1C(=O)Nc1ccc(F)c(C#N)c1)[C@@H]1C[C@@H]1C2 [Example 72, (1aR,6aR)—N-(3-cyano-4-fluorophenyl)-4-methyl-5-(2-((3-methyl-1,1-dioxidothietan-3-yl)amino)-2-oxoacetyl)-1,1a,6,6a-tetrahydrocyclopropa[b]pyrrolizine-3-carboxamide]
9 | ≥ 39.5 h | CNC(=O)C1(NC(=O)C(=O)c2c(C)c(C(=O)Nc3ccc(F)c(F)c3)n3c2C[C@@H](F)C3)CC(F)(F)C1 [Example 49, (R)-7-(2-((3,3-difluoro-1-(methylcarbamoyl)cyclobutyl)amino)-2-oxoacetyl)-N-(3,4-difluorophenyl)-2-fluoro-6-methyl-2,3-dihydro-1H-pyrrolizine-5-carboxamide]
10 | ≥ 39.5 h | CNC(=O)C1(NC(=O)C(=O)c2c(C)c(C(=O)Nc3ccc(F)c(F)c3)n3c2CCC3)CC(F)(F)C1 [Example 44, 7-(2-((3,3-difluoro-1-(methylcarbamoyl)cyclobutyl)amino)-2-oxoacetyl)-N-(3,4-difluorophenyl)-6-methyl-2,3-dihydro-1H-pyrrolizine-5-carboxamide]
11 | ≥ 39.5 h | CNC(=O)C1(NC(=O)C(=O)c2c(C)c(C(=O)Nc3ccc(F)c(C(F)F)c3)n3c2CCC3)CC(F)(F)C1 [Example 116, 7-(2-((3,3-difluoro-1-(methylcarbamoyl)cyclobutyl)amino)-2-oxoacetyl)-N-(3-(difluoromethyl)-4-fluorophenyl)-6-methyl-2,3-dihydro-1H-pyrrolizine-5-carboxamide]

Test system: HBV AD38 viral particles in HepG2 cell line overexpressing NTCP
Experiment: HBV DNA Quantification Assay
Format: cell-based
Conditions: Hepatitis B virus, HepG2, 120 h, HBV AD38-infected HepG2-NTCP cells, 5 days incubation, HBV DNA in culture supernatant (QuantiGene 2.0); geometric mean of a minimum of four determinations
Experimental: A HepG2 cell line overexpressing the HBV virus attachment receptor sodium-taurocholate cotransporting polypeptide (NTCP) was grown to confluency in DMEM growth medium, Dulbecco's Modified Eagle Medium without sodium pyruvate (Life Technologies, Rockville, Md.) supplemented with 10% FBS (Thermo Scientific, Waltham, Md.), 1% penicillin/streptomycin (Life Technologies, Rockville, Md.) and 2 mM L-glutamine (Life Technologies, Rockville, Md.) in T175 flasks. Cells were infected with HBV AD38 viral particles (Texcell, Frederick, USA) at 4000 genome equivalents per cell. […] The assay plates were incubated for a period of 5 days and the antiviral activity of the test compounds were assayed by detecting the presence of HBV DNA in the culture supernatant using the QuantiGene™ 2.0 nucleic acid quantification kit (Affymetrix, Santa Clara, Calif.).
The culture supernatant was harvested and treated with lysis buffer containing Proteinase K (Affymetrix, Santa Clara, Calif.). […] After the final wash step, the alkaline phosphatase substrate (Luminol APS5) was added and the resulting luminescence signal was read in an EnVision Multilabel Plate Reader (PerkinElmer, Santa Clara, Calif.). […]

Row | SMILES | EC50
12 | Cc1c(C(=O)C(=O)NC2(c3c[nH]nn3)CC(F)(F)C2)c2n(c1C(=O)Nc1ccnc(C(F)F)c1F)[C@@H]1C[C@@H]1C2 [Example 80, (1aR,6aR)-5-(2-((3,3-difluoro-1-(1H-1,2,3-triazol-4-yl)cyclobutyl)amino)-2-oxoacetyl)-N-(2-(difluoromethyl)-3-fluoropyridin-4-yl)-4-methyl-1,1a,6,6a-tetrahydrocyclopropa[b]pyrrolizine-3-carboxamide] | 8.7 nM
